US20060229284A1, “Enhanced occlusive effect photodynamic therapy” (priority 2004, published 2006)

Assays:
[1] = tested on: neovasculature of the eye (advanced AMD); experiment: Clinical trial of PDT with Talaporfin Sodium and 664 nm laser light in 9 human subjects with advanced AMD; type: in vivo
Description: A clinical trial of 9 human subjects with advanced AMD was arranged. The 9 subjects were each treated with PDT using Talaporfin Sodium, and a laser light at 664 nm wavelength as the excitation light source. The Table as provided in FIG. 1 describes the results of and details of the PDT procedures performed on the 9 subjects.

[2] = tested on: subfoveal choroidal neovascularization (CNV); conditions: cases followed for 3 months after a single PDT treatment; cited from earlier work
classic CNV = conditions: 3 months after initial PDT treatment; cited from earlier work
[3] = tested on: choroidal neovascularization (CNV); conditions: after re-treatment; cited from earlier work
[4] = tested on: choroidal neovascularization (CNV); conditions: cited from earlier work
skin = conditions: systemic administration, clinical use; cited from earlier work

C=Cc1c(C)c2cc3nc(c(CC(=O)N[C@@H](CC(=O)O)C(=O)O)c4[nH]c(cc5nc(cc1[nH]2)C(C)=C5CC)c(C)c4C(=O)O)[C@@H](CCC(=O)O)[C@@H]3C [Talaporfin Sodium, mono-L-aspartyl-chlorin e6]
extended period of enhanced neovasculature occlusive effect ([1]; most patients of 9 subjects, laser light 664 nm): ≥ 15 weeks | retina and leakage after treatment ([1]; subjects 1 and 3, who had leakage causing serious elevation of the retina): the retina appeared more flat and leakage had apparently ceased | re-opening of treated vessels during subsequent observations ([1]; subjects studied, FIG. 1): no indication of re-opening of vessels

verteporfin
cases with progression of classic CNV beyond the area of CNV identified before treatment [2]: 51% | eyes scheduled for retreatment (classic CNV): 90.8% | eyes with classic CNV present that displayed leakage from classic CNV again (classic CNV): 92.8% | leakage activity compared to baseline leakage [3]: appeared to be reduced | subject eyes that maintained CNV closure ([4]; after 1 week): 83% | eyes showing closure ([4]; after 5 weeks): 9% | eyes showing leakage had recommenced ([4]; after 5 weeks, excluding one eye removed from test data): 91%

CCOC(=O)C1=Cc2c3nc(cc4nc(cc5[n-]c(cc6[n-]c2c(C)c6CC)c(C)c5CC)C(C)=C4CC)[C@@H](C)[C@]13CC.[Cl-].[Cl-].[Sn] (racemic) [Purlytin]
duration of skin photosensitivity (skin): several weeks

Oc1cccc(-c2c3nc(c(-c4cccc(O)c4)c4ccc([nH]4)c(-c4cccc(O)c4)c4nc(c(-c5cccc(O)c5)c5ccc2[nH]5)CC4)C=C3)c1 [Foscan]
duration of skin photosensitivity (skin): several weeks

sodium porfimer [Photophrine]
duration of skin photosensitivity (skin): up to 6 weeks
